Data on eleven compounds can be found in ChEMBL document CHEMBL1201862, “PubChem BioAssay data set” (2004).

Test systems include 786-0; A498; A549; HCT-15; HOP-62; HT-29; IGROV-1; KM12; MDA-MB-231; Malme-3M; NCI-H226; RXF 393; SF-295; SK-MEL-5; SN12C; SNB-19; SW-620; U-251; OVCAR-4; SR.
Assay in all cases: NCI-60 cell line screen, 48 h

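Five concentrations, 48 hours, 96-well plates. The concentration for 50% growth inhibition is given as GI50.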 The source made the active and inactive calls. Rule as the data show it: active = GI50 up to about 1.1 µM and inactive = higher.

For `O=C(/C=C/c1ccc(O)c(O)c1)OCCc1ccc2ccccc2c1`, the GI50 with 786-0 is 8.59 µM (inactive); in the assay with A498, 15.2 µM (inactive); in the assay on A549, 9.35 µM (inactive); in the assay on HCT-15 it was 2.49 µM; with HOP-62 it was 13.2 µM (inactive); in the assay with HT-29, 12.9 µM (inactive). Further, the GI50 is 2.32 µM (inactive) in the assay with IGROV-1; 3.64 µM (inactive) in the assay with KM12; 10.6 µM (inactive) in the assay with MDA-MB-231; 10.9 µM (inactive) in the assay with Malme-3M; 14.8 µM (inactive) with NCI-H226; 9.46 µM (inactive) in the assay on RXF 393. Besides, the GI50 in the assay on SF-295 was 10.9 µM (inactive); in the assay with SK-MEL-5, 3.15 µM (inactive); with SN12C, 5.26 µM (inactive); in the assay with SNB-19 it was 12.8 µM (inactive); in the assay with SW-620, 6.93 µM (inactive); in the assay with U-251, 10.8 µM (inactive).
Regarding `CCc1cc2c(c3c1CCC3=O)CC1(Cc3ccc(C)cc3C1)C2` (stereo not drawn), the GI50 with 786-0 is 96.8 µM (inactive); in the assay on A498, 27.4 µM (inactive); in the assay on A549 it was 18.2 µM (inactive); in the assay on HCT-15, 46.3 µM; in the assay with HOP-62, > 100 µM (inactive); in the assay on HT-29, 18.1 µM (inactive). Further, the GI50 with IGROV-1 is 42.9 µM (inactive); with KM12, 71.3 µM (inactive); in the assay with MDA-MB-231, 36.6 µM (inactive); with Malme-3M, 32.1 µM (inactive); in the assay on NCI-H226 it was 13.5 µM (inactive); with OVCAR-4, 33.2 µM (inactive). Moreover, the GI50 in the assay with RXF 393 is 34.8 µM (inactive); in the assay with SF-295, 80.2 µM (inactive); with SK-MEL-5 it was 18.9 µM (inactive); in the assay with SN12C, 43.4 µM (inactive); with U-251, 30.5 µM (inactive).
For `S=C1CSc2c(ccc3ccccc23)N1`, the GI50 in the assay with 786-0 is > 100 µM (inactive); in the assay with A549, 67.1 µM (inactive); in the assay on HCT-15 it was greater than 100 µM; in the assay with HOP-62, > 100 µM (inactive); with HT-29 it was > 100 µM (inactive); in the assay with IGROV-1 it was > 100 µM (inactive). For the same compound, the GI50 in the assay on KM12 is > 100 µM (inactive); with MDA-MB-231 it was > 100 µM (inactive); in the assay with Malme-3M, > 100 µM (inactive); in the assay on NCI-H226, > 100 µM (inactive); with OVCAR-4, > 100 µM (inactive); in the assay with RXF 393 it was 35.9 µM (inactive). For the same compound, the GI50 with SF-295, in the assay on SK-MEL-5, in the assay on SN12C, in the assay with SNB-19, in the assay with SR and in the assay on U-251 was > 100 µM (inactive) throughout.
Take `S=C(NCCc1ccccn1)N/N=C/c1ccccn1`: the GI50 in the assay on 786-0 is 0.0653 µM (active); in the assay with A549, 0.578 µM (active); in the assay with HOP-62, 0.0149 µM (active); in the assay with IGROV-1 it was < 0.01 µM (active); in the assay on KM12, 0.106 µM (active); in the assay on MDA-MB-231, < 0.01 µM (active). The GI50 was 2.62 µM (inactive) in the assay with Malme-3M; 0.0598 µM (active) in the assay with NCI-H226; 0.519 µM (active) with OVCAR-4; 0.964 µM (active) with SF-295; 0.182 µM (active) with SK-MEL-5; 1.11 µM (active) in the assay on SN12C. Besides, the GI50 with SNB-19 is 2.28 µM (inactive); in the assay with SR, < 0.01 µM (active); with SW-620, < 0.01 µM (active).
In the case of `O[C@@H]1[C@H](OC2c3ccccc3-c3ccccc32)[C@H](OCc2ccccc2)[C@@H]2OC[C@H]1O2`, the GI50 with 786-0 was 19.7 µM (inactive); in the assay on A498 it was > 100 µM (inactive); with A549 it was 34.6 µM (inactive); with HCT-15, greater than 100 µM; in the assay with HOP-62, 25.8 µM (inactive); in the assay with HT-29, > 100 µM (inactive). Moreover, the GI50 with IGROV-1 was > 100 µM (inactive); with KM12, > 100 µM (inactive); in the assay on MDA-MB-231, 51.3 µM (inactive); in the assay on Malme-3M it was > 100 µM (inactive); in the assay with NCI-H226 it was > 100 µM (inactive); in the assay on OVCAR-4, 91 µM (inactive). Also, the GI50 with RXF 393 is > 100 µM (inactive); in the assay on SF-295 it was > 100 µM (inactive); with SK-MEL-5, > 100 µM (inactive); in the assay on SN12C, > 100 µM (inactive); with SNB-19, 58.2 µM (inactive); in the assay with SW-620, > 100 µM (inactive). In addition, the GI50 with U-251 was 43.3 µM (inactive).
In the case of `OC(c1cccs1)c1cc2ccccc2s1` (stereo not drawn), the GI50 in the assay on 786-0 was > 10 µM (inactive); in the assay on A549 it was > 10 µM (inactive); in the assay with HCT-15, greater than 10 µM; with HOP-62 it was > 10 µM (inactive); in the assay on HT-29, > 10 µM (inactive); in the assay on IGROV-1, > 10 µM (inactive). Moreover, the GI50 in the assay on KM12, in the assay with MDA-MB-231, with NCI-H226, with OVCAR-4, in the assay with RXF 393 and in the assay on SF-295 was > 10 µM (inactive) in each case. The GI50 with SK-MEL-5, in the assay on SN12C, in the assay on SNB-19, with SR, with SW-620 and in the assay on U-251 was > 10 µM (inactive) each time.
As to `C=CCC1(C#N)C(=S)NC2=C(C(=O)CC(C)(C)C2)C1c1ccccc1` (stereo not drawn), the GI50 was 35.9 µM (inactive) with 786-0; 33.8 µM (inactive) in the assay on A549; 70.1 µM with HCT-15; 34.6 µM (inactive) with HT-29; 55.1 µM (inactive) with IGROV-1; 32.7 µM (inactive) with KM12. Moreover, the GI50 in the assay on MDA-MB-231 was 36.7 µM (inactive); in the assay on NCI-H226 it was 71.4 µM (inactive); in the assay with OVCAR-4, 31 µM (inactive); in the assay on RXF 393, 42.7 µM (inactive); in the assay with SK-MEL-5, 45.6 µM (inactive); in the assay on SN12C, 38.5 µM (inactive). Moreover, the GI50 with SNB-19 was 31 µM (inactive); in the assay with SR it was 50.6 µM (inactive); in the assay with SW-620 it was > 100 µM (inactive); in the assay with U-251, 30.9 µM (inactive).
For the compound `NNC(=O)Cc1cccnc1`, the GI50 is > 100 µM (inactive) in the assay with 786-0; > 100 µM (inactive) in the assay with A498; > 100 µM (inactive) with A549; greater than 100 µM in the assay on HCT-15; > 100 µM (inactive) in the assay on HOP-62; > 100 µM (inactive) in the assay with HT-29. The GI50 in the assay with IGROV-1, in the assay with KM12, in the assay on MDA-MB-231, with Malme-3M, in the assay on OVCAR-4 and with RXF 393 was > 100 µM (inactive) throughout. Further, the GI50 in the assay with SF-295, in the assay with SK-MEL-5, in the assay on SN12C, in the assay on SNB-19, in the assay on SW-620 and in the assay with U-251 was > 100 µM (inactive) each time.
As for `COc1ccc([C@H](NC(=O)c2ccccc2)[C@@H](O)C(=O)O[C@H]2C[C@@]3(O)C(OC(=O)c4ccccc4)C4[C@](C)(C(=O)[C@H](OC(C)=O)C(=C2C)C3(C)C)[C@@H](O)C[C@H]2OC[C@@]42OC(C)=O)cc1` (stereo partly drawn), the GI50 in the assay on 786-0 is 0.0389 µM (active); in the assay with A549, 0.00618 µM (active); in the assay on HCT-15 it was 0.366 µM; in the assay with HOP-62, 0.015 µM (active); with HT-29, < 0.001 µM (active); in the assay on IGROV-1, 0.00344 µM (active). Further, the GI50 was < 0.001 µM (active) in the assay on KM12; > 10 µM (inactive) in the assay with MDA-MB-231; 0.0028 µM (active) in the assay with Malme-3M; 0.00673 µM (active) in the assay with NCI-H226; 3.11 µM (inactive) in the assay on OVCAR-4; 0.0412 µM (active) with RXF 393. Also, the GI50 was 0.0783 µM (active) in the assay on SF-295; 0.00244 µM (active) in the assay with SK-MEL-5; 0.00284 µM (active) in the assay with SN12C; 0.0368 µM (active) with SNB-19; 0.00182 µM (active) in the assay on SR; 0.00508 µM (active) in the assay with SW-620. Besides, the GI50 in the assay with U-251 is 0.00695 µM (active).
For `O=S1(=O)OCCOS(=O)(=O)C1S(=O)(=O)c1cccc2ccccc12`, the GI50 was 99.5 µM (inactive) with 786-0; > 100 µM (inactive) in the assay on A549; greater than 100 µM in the assay with HCT-15; > 100 µM (inactive) in the assay on HOP-62; 52.7 µM (inactive) in the assay with HT-29; > 100 µM (inactive) in the assay with IGROV-1. Further, the GI50 in the assay with KM12, with MDA-MB-231, in the assay on Malme-3M, with OVCAR-4, in the assay on SF-295 and in the assay on SK-MEL-5 was > 100 µM (inactive) in each case. Also, the GI50 was > 100 µM (inactive) in the assay on SN12C; > 10 µM (inactive) in the assay on SNB-19; > 100 µM (inactive) in the assay on SR; 70.5 µM (inactive) with SW-620; > 100 µM (inactive) in the assay on U-251.
In the case of `Cn1cnc2c(OCC3CCCCC3)nc(N)nc21`, the GI50 with 786-0 is > 100 µM (inactive); in the assay on A549 it was > 100 µM (inactive); in the assay with HCT-15, greater than 100 µM; in the assay with HOP-62, > 100 µM (inactive); in the assay with HT-29, 73.8 µM (inactive); in the assay on IGROV-1, 36.5 µM (inactive). Besides, the GI50 is > 100 µM (inactive) in the assay with KM12; > 100 µM (inactive) with MDA-MB-231; > 100 µM (inactive) in the assay on Malme-3M; 44.1 µM (inactive) in the assay with NCI-H226; > 100 µM (inactive) in the assay on OVCAR-4; > 100 µM (inactive) with RXF 393. The GI50 with SF-295 is > 100 µM (inactive); in the assay with SK-MEL-5 it was 70.6 µM (inactive); with SN12C, > 100 µM (inactive); in the assay on SNB-19 it was > 100 µM (inactive); in the assay with SW-620, > 100 µM (inactive); with U-251 it was > 100 µM (inactive).
